Test results taken from a melting point compilation (Tetko et al.).

Structure (SMILES)	melting point [°C]
CC1CN(c2ccc(NC(=O)OCC(F)(F)F)cc2F)CC(C)O1 (centres undefined)	130 to 132
Nc1cc(Cl)c(Cl)cn1	140 to 142
O=Cc1cc[nH]n1	139 to 141
CC(C)CCC1CCC(=O)NC1=O (centres undefined)	117 to 119
O=C(O)c1cccc(S(=O)(=O)NC2CCCC2)c1	209 to 211
NC(CCCN1CCCCC1)=NO	89 to 91
CCOC(=O)Cn1c(=O)[nH]c2cc(Br)cnc21	206 to 208
O=S(=O)(Cl)CCOc1ccccc1	37 to 39
Clc1nc(CN2CCCCC2)nc2sc3c(c12)CCC3	75 to 77
CC1CCN(S(=O)(=O)c2ccc(C(=O)O)cc2)CC1	180 to 182
CN(C)C(=O)c1ccc(Cl)nn1	137 to 139
COC(=O)C1CCN(S(=O)(=O)Cl)CC1	66 to 68
Nc1ccccc1S(=O)(=O)C(F)(F)F	47 to 49
Cc1cccc2ncc(C=O)n12	128 to 130
COC(=O)Nc1cccc(N)c1	62 to 64
CC(C)COc1ccc(C(C)(C)C(=O)O)cc1	107 to 109
Fc1ccc(-c2cc(CBr)on2)cc1	74 to 76
Cc1ccc(-c2ncc(C(=O)O)s2)c(C)c1	171 to 173
O=S(CCCl)c1cc(Cl)ccc1Cl (centres undefined)	68 to 70
CC(C)(C)c1ccc(OCCCC(=O)O)cc1	53 to 55
Clc1ccc2cccc(Br)c2n1	112 to 114
FC(F)(F)Cn1c(S)nnc1-c1ccncc1	243 to 245
CS(=O)(=O)CC(=O)c1ccccc1	106 to 108
CC(CC(=O)O)c1cccc(F)c1 (centres undefined)	33 to 35

Structure (SMILES)	melting point [°C]
CNC(C(=O)O)c1cc(F)ccc1F (centres undefined)	239 to 241
CN(C(=O)c1ccccc1O)C1CCCC1	65 to 74
CC(O)c1cnc(-c2ccc(Br)cc2)s1 (centres undefined)	77 to 79
CCS(=O)(=O)Nc1nc2ccc(N)cc2s1	217 to 219
O=C(O)C=Cc1cc(Cl)ccc1OCc1ccc(F)cc1	166 to 168
ClCc1cc(Cl)cc2c1OC(c1ccccc1)OC2 (centres undefined)	111 to 113
Cc1c(C(=O)O)oc2c(Br)cc(Cl)cc12	279 to 281
CSc1nn(-c2ccccc2)c(N)c1C#N	135 to 137
Cc1ccnc(NC2CCCCC2)c1	75 to 77
CN(C)c1cc(C(=O)O)c2ccccc2n1	259 to 261
CC(=O)Nc1ccc(-c2csc(N)n2)c(F)c1	204 to 206
N#CC1(NC(=O)c2ccccc2)CCCCC1	135 to 137
Clc1ccc(Cl)c(OCC2CO2)c1 (centres undefined)	62 to 64
O=C(O)C=Cc1ccc(S(=O)(=O)N2CCOCC2)cc1	249 to 251
Cc1ccc(-c2nc3ccc(F)cc3n2C(C)C)cc1N	183 to 185
CCN(CC)S(=O)(=O)c1ccc(C)c(N)c1	108 to 112
Cc1cc(S(=O)(=O)Cl)sc1Br	35 to 37
COc1cc(C(=O)O)ccc1OCc1csc(C)n1	172 to 174
OC1CCc2c(Cl)cccc21 (centres undefined)	69 to 71
CN1C(=O)CC(C(=O)O)c2ccccc21 (centres undefined)	162 to 164
COc1ccc(CC(=O)NN)cc1	132 to 134
C#CCOc1cccc(S(C)(=O)=O)c1	89 to 91
NNC(=O)Nc1ccc(Br)cc1	236 to 238
FC(F)(F)c1cc(Cl)nc(-c2cccnc2)n1	114 to 116

Structure (SMILES)	melting point [°C]
Cc1oc2cc(O)ccc2c(=O)c1Oc1ccccc1	235 to 237
O=Cc1ccc(OCc2ncon2)cc1	98 to 100
O=C(O)c1cc2ccc(SC(F)(F)F)cc2[nH]1	185 to 187
O=C(O)c1ccc(S(=O)(=O)Nc2ccccc2Oc2ccccc2)cc1	204 to 206
O=C(O)c1cnn2cc(Br)cnc12	199 to 201
Nc1nc(-c2ccc(Oc3ccccc3)cc2)cs1	195 to 197
CCOC(=O)c1nnn(-c2cccc([N+](=O)[O-])c2)c1N	151 to 153
NCc1csc(CNC(=O)c2ccccc2)n1	84 to 86
N#CCC(=O)N1CCSCC1	103 to 105
CC(NC(=O)CCl)c1ccc2ccccc2c1 (centres undefined)	201 to 203
CC(=O)c1ccccc1NS(=O)(=O)c1ccc(C)cc1	148 to 150
C=CCn1c(N)c(C#N)sc1=S	174 to 176
O=C(O)CCS(=O)(=O)c1ccc(Cl)cc1	181 to 183
COc1cc(N)ncc1Br	136 to 138
N#Cc1cccc(OCCBr)c1	36 to 38
CN(C)C1=CC(=C(N)N=O)C=CN1	129 to 131
Nc1ncc(C(=O)O)cc1Cl	338 to 340
CNC(=S)NCc1ccco1	74 to 76
CNc1c(F)cccc1C(=O)O	134 to 136
CCCCn1nc(C(=O)O)ccc1=O	119 to 121
CC(C(=O)O)S(=O)(=O)c1ccc(F)cc1 (centres undefined)	117 to 119
Nc1ccc(S(=O)(=O)NC2CCC(O)CC2)cc1 (centres undefined)	154 to 156
N#Cc1cc(F)cc(F)c1[N+](=O)[O-]	95 to 97
Cc1nc(-c2ccc(Cl)nc2)[nH]c(=O)c1C	263 to 265

Structure (SMILES)	melting point [°C]
CCC(C)(C)c1ccc(C(=O)O)cc1	103 to 105
O=C(O)c1cc(Br)cc(S(=O)(=O)Cl)c1	154 to 156
Oc1nnc2c(Cl)cccn12	269 to 271
Cn1cc(Cl)cc1C(=O)O	129 to 131
O=C(Nc1ccccc1[N+](=O)[O-])N1CCCC1	99 to 101
CNc1ccc(C#N)cc1F	76 to 78
CC1CCc2c(sc3nc(CC#N)[nH]c(=O)c23)C1 (centres undefined)	266 to 268
Nc1ccc(CN2CCOCC2)cn1	119 to 121
O=C(NO)c1ccc(Cl)cc1	170 to 172
CC(C)CNc1c(N)n(Cc2ccccc2)c(=O)[nH]c1=O	211 to 213
ClCc1ccc(Oc2cccc(Cl)c2Cl)cc1	62 to 64
COC(=O)c1cc(OC)c(S(=O)(=O)O)s1	109 to 111
Nc1cccc(C(=O)N2CCCCC2)c1	121 to 123
COC(=O)c1sc(N)nc1C1CC1	184 to 186
O=C(O)c1ccc([N+](=O)[O-])[nH]1	162 to 164
Sc1nnc(-c2ccco2)o1	173 to 175
Cc1c(C(N)=O)cccc1[N+](=O)[O-]	163 to 165
CNc1cc(C(=O)O)cc(Cl)n1	259 to 261
COc1ccc(N2CCC2=O)cc1	103 to 105
CN(C)C(=O)Cn1cc(Br)cn1	163 to 165
CN1CCN(C)c2cc(N)ccc2C1=O	188 to 190
NNc1ncc(Cl)cc1Cl	179 to 181
CC(=O)c1ccc(-n2cncn2)cc1	111 to 124
O=C(O)Cn1ccccc1=O	220 to 222

Structure (SMILES)	melting point [°C]
CCOC=C1C(=O)N(c2cccc(C(F)(F)F)c2)C(=O)c2ccccc21	194 to 196
NCCNC(=O)c1ccccc1O	38 to 40
Cc1cc(C(=O)C=O)ccc1F	76 to 78
O=[N+]([O-])c1cnc(Cl)nc1NC1CC1	114 to 116
FC(F)(F)CNc1ccccn1	70 to 72
N#Cc1ccc(-c2nc3ccccc3[nH]2)cc1	326 to 328
N#Cc1cccc(OCC(=O)O)c1	123 to 125
CCn1c(S)nnc1-c1ccc(OC)cc1	178 to 180
CC(O)c1nc2ccccc2n1C (centres undefined)	111 to 113
Cc1ccc(-c2cnc(-c3ccccc3C(=O)O)o2)cc1	219 to 221
O=[N+]([O-])c1ccc(Cl)cc1CBr	61 to 63
O=C(O)CNC(=O)c1cccc(Cl)c1	98 to 100
COc1nc(Cl)nc(Cl)n1	89 to 91
O=C(O)C=Cc1ccc(SC(F)(F)F)cc1	212 to 214
O=C(O)c1cc(S(=O)(=O)N2CCCCC2)ccc1Cl	214 to 216
N#Cc1ccc(N2CCNCC2)c(F)c1	84 to 86
COc1cc(C#N)ccc1Oc1ccc(N)cc1	123 to 125
CS(=O)(=O)Nc1ccccc1CC(=O)O	126 to 128
O=C(O)c1ccncc1N1CCOCC1	201 to 203
O=[N+]([O-])c1ccc(Cl)cc1S(=O)(=O)Cl	67 to 69
Cc1ccc(N)c(OCc2ccccc2)c1	68 to 70
CC(C)S(=O)(=O)Nc1cccc(O)c1	123 to 125
O=C(O)CCN1C(=O)CCc2cc(F)ccc21	149 to 151
NS(=O)(=O)CC1CCCN1 (centres undefined)	72 to 74

Structure (SMILES)	melting point [°C]
NNC(=O)Cc1cccnc1	99 to 101
O=C(Nc1cccc(C(=O)O)c1)NC1CC1	236 to 238
Nc1ccc(S(=O)C(F)F)cc1 (centres undefined)	83 to 85
O=C(O)Cc1csc(-c2ccc3c(c2)OCCO3)n1	188 to 190
NS(=O)(=O)c1ccc(Br)c([N+](=O)[O-])c1	185 to 187
COC(=O)c1c(NC(=O)CCl)sc2c1CCC2	98 to 100
O=C(CCl)N(Cc1ccc(F)cc1)C12CC3CC(CC(C3)C1)C2	129 to 131
CS(=O)(=O)c1cccc(S(=O)(=O)Cl)c1	87 to 89
Cc1cc(C=O)c(C)n1C1CC1	71 to 75
c1ccc(C2CNCCS2)cc1 (centres undefined)	60 to 62
CCc1[nH]nc(N)c1-c1ccc2c(c1)OCO2	97 to 99
O=C(O)c1nn(-c2ccc(Cl)cc2)cc1O	248 to 250
O=C(Cc1nc2ccccc2[nH]1)NCc1ccccn1	176 to 178
Nc1nc(-c2ccccc2)c(-c2ncc[nH]2)s1	256 to 258
Sc1nnc(Cc2ccccc2)o1	124 to 126
NC(=O)CCNc1cc(Cl)ncn1	165 to 167
COc1ccc(C=O)c(Cl)c1	60 to 62
Cc1cc(Br)ccc1C(=O)N1CCCC(C(=O)O)C1 (centres undefined)	123 to 125
O=C(O)c1n[nH]c2c1CCC2	287 to 289
CC(C)(C)Cc1nc2cc(N)ccc2o1	83 to 85
CCNCc1cccc(NC(=O)c2cc(Cl)c[nH]2)c1	126 to 128
Cc1cc(N)ccc1N1CCSCC1	67 to 69
O=S(=O)(c1ccc(CBr)cc1)C(F)F	57 to 61
CC(C)(C)c1noc(N)n1	192 to 194
